Legend:
PI3Kα = PI3Kα (Homo sapiens, UniProt P42336); assay: PI3K kinase activity inhibition assay; type: biochemical; details: Kinase-Glo Plus ATP detection, read-out: IC50 against PI3K
How it was run: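 PI3Kα (50 nM solution) was reacted with 30 μM ATP and 45 μM PIP2 solutions, each in HEPES pH 7.4 with MgCl2 and DTT, for 2 h at room temperature. Remaining ATP was measured by Kinase-Glo Plus luminescence, and inhibition was derived from ATP consumed. IC50 was taken from curve fitting of the serial dilutions.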

[1] = test system: human endometrial cancer cell strain AN3CA; assay: Cell growth inhibition test (MTT), AN3CA; type: cell-based; details: AN3-CA, 72 h, 3 days culture, read-out: concentration exhibiting anti-cell effect (GI50)
How it was run: (§1)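 Seed 5000/1000/5000 cells per well (AN3CA/IGROV1/HT29); add compound next day; culture 3 d, 37° C, 5% CO2; MTT 4 h, DMSO, A540. T/C % vs pre-dose baseline; GI50 from bracketing concentrations.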

[2] = test system: human colon cancer cell strain HT29; assay: Cell growth inhibition test (MTT), HT29; type: cell-based; details: HT-29, 72 h, HT29, 3 days culture, read-out: concentration exhibiting anti-cell effect (GI50)
How it was run: as §1

[3] = test system: Akt (threonine 308) phosphorylation in AN3CA tumor; assay: Akt phosphorylation inhibition assay in xenograft; type: in vivo, female nude mouse; details: Mus musculus, AN3-CA, oral, 6 hr after dosing
Method: (§2) A tumor section was prepared from a human endometrial cancer cell strain AN3CA tumor mass formed in a female nude mouse as subcutaneously transplanted tumor and a xenograft model was prepared by subcutaneously transplanting the tumor to a female nude mouse. The test compound at a predetermined concentration was orally administered. After a predetermined time, the anesthetized mouse was exsanguinated to death, and a tumor mass was isolated. The tumor mass was crushed using a lysis buffer containing inhibitors of proteases and dephosphorylating enzymes (Cell Signaling Technology, Inc.) and the supernatant was separated by centrifugation to obtain a tumor extract. The protein content of the tumor extract was measured using DC Protein Assay Kit (Bio-Rad Laboratories, Inc.) and phosphorylation conditions of Akt (threonine 308) and S6 (serine 235 and 236) were analyzed by a usual technique of western blotting using tumor extracts containing the same amount of protein. The primary antibody and the secondary antibody used for detecting each molecule were rabbit anti-phospho-Akt(T308) antibody and HRP-labeled goat anti-rabbit IgG antibody or mouse anti-phospho-S6(S235/236) antibody and HRP-labeled sheep anti-mouse IgG antibody.
(§3) The signal intensity detected using an image analyzer Typhoon 9400 (GE Healthcare) was quantified, and the phosphorylation inhibition rate (%) was calculated by the following formula. Phosphorylation inhibitory activity (%) of Akt and S6 after treatment with test compound=100−100×(B/A) A: Signal intensity derived from phosphorylated protein in tumor mass isolated from mouse untreated with test compound B: Signal intensity derived from phosphorylated protein in tumor mass isolated from mouse treated with test compound

[4] = test system: S6 (serine 235 and 236) phosphorylation in AN3CA tumor; assay: S6 phosphorylation inhibition assay in xenograft; type: in vivo, female nude mouse; details: Mus musculus, AN3-CA, oral, 6 hr after dosing
Method: as §2, §3

Chain of PI3Kα (P42336 whole entry, species assumed): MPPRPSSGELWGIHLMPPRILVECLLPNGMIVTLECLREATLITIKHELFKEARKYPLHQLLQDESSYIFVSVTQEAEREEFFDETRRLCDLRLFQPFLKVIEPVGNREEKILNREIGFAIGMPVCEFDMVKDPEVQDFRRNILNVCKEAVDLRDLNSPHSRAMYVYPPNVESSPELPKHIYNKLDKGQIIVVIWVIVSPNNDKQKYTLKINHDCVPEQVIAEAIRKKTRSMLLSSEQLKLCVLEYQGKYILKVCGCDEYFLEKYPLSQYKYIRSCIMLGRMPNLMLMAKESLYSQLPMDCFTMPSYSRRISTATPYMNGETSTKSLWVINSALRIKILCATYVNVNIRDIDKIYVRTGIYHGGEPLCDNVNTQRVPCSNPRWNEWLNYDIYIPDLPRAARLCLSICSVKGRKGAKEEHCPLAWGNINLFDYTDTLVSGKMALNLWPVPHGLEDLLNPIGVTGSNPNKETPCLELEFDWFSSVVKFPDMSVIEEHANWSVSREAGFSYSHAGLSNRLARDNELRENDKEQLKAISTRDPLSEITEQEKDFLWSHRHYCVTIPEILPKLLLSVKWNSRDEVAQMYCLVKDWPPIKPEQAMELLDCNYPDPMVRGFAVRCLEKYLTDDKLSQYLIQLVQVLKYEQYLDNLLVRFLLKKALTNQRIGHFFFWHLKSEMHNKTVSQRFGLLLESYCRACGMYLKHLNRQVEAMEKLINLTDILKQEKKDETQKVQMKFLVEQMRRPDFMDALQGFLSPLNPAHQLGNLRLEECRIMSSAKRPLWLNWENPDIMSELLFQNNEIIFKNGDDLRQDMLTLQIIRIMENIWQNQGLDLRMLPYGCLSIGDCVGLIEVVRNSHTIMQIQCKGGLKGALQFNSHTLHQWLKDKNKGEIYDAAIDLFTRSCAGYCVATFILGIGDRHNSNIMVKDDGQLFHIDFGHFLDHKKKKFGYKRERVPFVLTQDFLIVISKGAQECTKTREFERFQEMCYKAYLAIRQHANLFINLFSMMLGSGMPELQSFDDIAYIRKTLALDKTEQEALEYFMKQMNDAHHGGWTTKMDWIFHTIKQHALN
Chain of PI3Kα (P27986 whole entry partner, species assumed): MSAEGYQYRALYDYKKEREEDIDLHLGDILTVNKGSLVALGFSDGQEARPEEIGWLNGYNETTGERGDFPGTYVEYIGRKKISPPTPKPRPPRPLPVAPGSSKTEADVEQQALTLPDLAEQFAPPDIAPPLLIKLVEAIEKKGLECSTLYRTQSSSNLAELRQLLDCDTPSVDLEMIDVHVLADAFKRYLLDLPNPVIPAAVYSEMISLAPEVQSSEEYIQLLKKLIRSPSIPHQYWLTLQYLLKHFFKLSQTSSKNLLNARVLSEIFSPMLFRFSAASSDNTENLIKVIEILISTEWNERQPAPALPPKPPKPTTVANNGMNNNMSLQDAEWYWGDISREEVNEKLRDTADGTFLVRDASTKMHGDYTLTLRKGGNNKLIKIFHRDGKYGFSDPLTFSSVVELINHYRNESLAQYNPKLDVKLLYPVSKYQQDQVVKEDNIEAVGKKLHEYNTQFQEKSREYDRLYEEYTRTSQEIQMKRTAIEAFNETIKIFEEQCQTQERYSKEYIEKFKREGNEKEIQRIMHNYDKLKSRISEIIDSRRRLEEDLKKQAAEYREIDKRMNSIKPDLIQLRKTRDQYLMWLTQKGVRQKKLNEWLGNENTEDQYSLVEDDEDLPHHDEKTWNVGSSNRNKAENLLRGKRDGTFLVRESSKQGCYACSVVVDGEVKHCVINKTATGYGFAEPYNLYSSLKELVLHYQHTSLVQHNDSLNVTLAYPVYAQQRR

| IC50 (PI3Kα) [µM] | GI50 [1] [µM] | GI50 [2] [µM] | Compound | inhibition at 10 mg/kg [3] [%] | inhibition at 10 mg/kg [4] [%] |
| --- | --- | --- | --- | --- | --- |
| 0.01 to 0.02 | ≤ 5 | ≤ 5 | CC(C)Cn1c(N2CCN(S(C)(=O)=O)CC2)nc2c(N3CCOCC3)nc(-c3cnc(N)nc3)nc21 [Example 1, 5-{9-Isobutyl-8-[4-(methylsulfonyl)piperazin-1-yl]-6-morpholin-4-yl-9H-purin-2-yl}pyrimidin-2-amine] | – | – |
| 0.01 to 0.02 | ≤ 5 | ≤ 5 | CC(=O)N1CCN(c2nc3c(N4CCOCC4)nc(-c4cnc(N)nc4)nc3n2CC(C)C)CC1 [Example 2, 5-[8-(4-Acetylpiperazin-1-yl)-9-isobutyl-6-morpholin-4-yl-9H-purin-2-yl]pyrimidin-2-amine] | – | – |
| < 0.01 | ≤ 5 | ≤ 5 | CS(=O)(=O)N1CCN(c2nc3c(N4CCOCC4)nc(-c4cnc(N)nc4)nc3n2CC2CC2)CC1 [Example 3, 5-{9-(Cyclopropylmethyl)-8-[4-(methylsulfonyl)piperazin-1-yl]-6-morpholin-4-yl-9H-purin-2-yl}pyrimidin-2-amine] | > 60 | > 90 |
| < 0.01 | ≤ 5 | ≤ 5 | Cc1nc(N)ncc1-c1nc(N2CCOCC2)c2nc(N3CCN(S(C)(=O)=O)CC3)n(CC3CC3)c2n1 [Example 6, 5-{9-(Cyclopropylmethyl)-8-[4-(methylsulfonyl)piperazin-1-yl]-6-morpholin-4-yl-9H-purin-2-yl}-4-methylpyrimidin-2-amine] | > 60 | – |
| < 0.01 | ≤ 5 | ≤ 5 | CC(=O)N1CCN(c2nc3c(N4CCOCC4)nc(-c4cnc(N)nc4)nc3n2CC2CC2)CC1 [Example 10, 5-[8-(4-Acetylpiperazin-1-yl)-9-(cyclopropylmethyl)-6-morpholin-4-yl-9H-purin-2-yl]pyrimidin-2-amine] | – | – |
| < 0.01 | ≤ 5 | ≤ 5 | CC(C)Cn1c(N2CCN(C(=O)CN(C)C)CC2)nc2c(N3CCOCC3)nc(-c3cnc(N)nc3)nc21 [Example 55, 5-(8-{4-[(Dimethylamino)acetyl]piperazin-1-yl}-9-isobutyl-6-morpholin-4-yl-9H-purin-2-yl)pyrimidin-2-amine] | – | – |
| < 0.01 | ≤ 5 | ≤ 5 | CC(=O)N1CCN(c2nc3c(N4CCOCC4)nc(-c4cnc(N)nc4)nc3n2CC(F)(F)F)C[C@H]1C [Example 60, 5-{8-[(3R)-4-Acetyl-3-methylpiperazin-1-yl]-6-morpholin-4-yl-9-(2,2,2-trifluoroethyl)-9H-purin-2-yl}pyrimidin-2-amine] | > 60 | > 90 |
| 0.01 to 0.02 | ≤ 5 | ≤ 5 | CC(=O)N1CCN(c2nc3c(N4CCOCC4)nc(-c4cnc(N)nc4)nc3n2CC(C)C)C[C@H]1C [Example 99, 5-{8-[(3R)-4-Acetyl-3-methylpiperazin-1-yl]-9-isobutyl-6-morpholin-4-yl-9H-purin-2-yl}pyrimidin-2-amine] | 30 to 60 | – |
| 0.01 to 0.02 | ≤ 5 | ≤ 5 | CC(=O)N1CCN(c2nc3c(N4CCOC[C@@H]4C)nc(-c4cnc(N)nc4C)nc3n2CC2CC2)CC1 [Example 128, 5-{8-(4-acetylpiperazin-1-yl)-9-(cyclopropylmethyl)-6-[(3S)-3-methylmorpholin-4-yl]-9H-purin-2-yl}-4-methylpyrimidin-2-amine] | 30 to 60 | – |
| 0.01 to 0.02 | ≤ 5 | ≤ 5 | CC(=O)N1CCN(c2nc3c(N4CCOC[C@@H]4C)nc(-c4cnc(N)nc4)nc3n2CC(C)C)CC1 [Example 129, 5-{8-(4-Acetylpiperazin-1-yl)-9-isobutyl-6-[(3S)-3-methylmorpholin-4-yl]-9H-purin-2-yl}pyrimidin-2-amine] | – | 70 to 90 |

Continued, compound first:

| Compound | IC50 (PI3Kα) [µM] | GI50 [1] [µM] | GI50 [2] [µM] | inhibition at 10 mg/kg [3] [%] | inhibition at 10 mg/kg [4] [%] |
| --- | --- | --- | --- | --- | --- |
| CS(=O)(=O)N1CCN(c2nc3c(N4CCOCC4)nc(-c4cnc(N)nc4)nc3n2CC(F)(F)F)CC1 [Example 8, 5-{8-[4-(Methylsulfonyl)piperazin-1-yl]-6-morpholin-4-yl-9-(2,2,2-trifluoroethyl)-9H-purin-2-yl}pyrimidin-2-amine] | < 0.01 | ≤ 5 | ≤ 5 | > 60 | > 90 |
| CNc1ncc(-c2nc(N3CCOCC3)c3nc(N4CCN(S(C)(=O)=O)CC4)n(CC(F)(F)F)c3n2)cn1 [Example 11, N-Methyl-5-{8-[4-(methylsulfonyl)piperazin-1-yl]-6-morpholin-4-yl-9-(2,2,2-trifluoroethyl)-9H-purin-2-yl}pyrimidin-2-amine] | 0.01 to 0.02 | ≤ 5 | ≤ 5 | – | – |
| C[C@@H]1CN(c2nc3c(N4CCOCC4)nc(-c4cnc(N)nc4)nc3n2CC(F)(F)F)C[C@H](C)N1 [Example 14, 5-[8-(cis-3,5-Dimethylpiperazin-1-yl)-6-morpholin-4-yl-9-(2,2,2-trifluoroethyl)-9H-purin-2-yl]pyrimidin-2-amine] | < 0.01 | ≤ 5 | ≤ 5 | – | – |
| CC(C)Cn1c(N2CCN(S(C)(=O)=O)[C@@H](C)C2)nc2c(N3CCOCC3)nc(-c3cnc(N)nc3)nc21 [Example 53, 5-{9-Isobutyl-8-[(3S)-3-methyl-4-(methylsulfonyl)piperazin-1-yl]-6-morpholin-4-yl-9H-purin-2-yl}pyrimidin-2-amine] | 0.01 to 0.02 | ≤ 5 | ≤ 5 | 30 to 60 | – |
| CC(C)Cn1c(N2CCN(S(C)(=O)=O)[C@H](C)C2)nc2c(N3CCOCC3)nc(-c3cnc(N)nc3)nc21 [Example 54, 5-{9-Isobutyl-8-[(3R)-3-methyl-4-(methylsulfonyl)piperazin-1-yl]-6-morpholin-4-yl-9H-purin-2-yl}pyrimidin-2-amine] | 0.01 to 0.02 | ≤ 5 | ≤ 5 | 30 to 60 | – |
| CS(=O)(=O)C1CCN(c2nc3c(N4CCOCC4)nc(-c4cnc(N)nc4)nc3n2CC(F)(F)F)CC1 [Example 57, 5-{8-[4-(Methylsulfonyl)piperidin-1-yl]-6-morpholin-4-yl-9-(2,2,2-trifluoroethyl)-9H-purin-2-yl}pyrimidin-2-amine] | < 0.01 | ≤ 5 | ≤ 5 | 30 to 60 | > 90 |
| C[C@@H]1CN(c2nc3c(N4CCOCC4)nc(-c4cnc(N)nc4)nc3n2CC(F)(F)F)CCN1S(C)(=O)=O [Example 61, 5-{8-[(3R)-3-Methyl-4-(methylsulfonyl)piperazin-1-yl]-6-morpholin-4-yl-9-(2,2,2-trifluoroethyl)-9H-purin-2-yl}pyrimidin-2-amine] | < 0.01 | ≤ 5 | ≤ 5 | > 60 | > 90 |
| C[C@H]1CN(c2nc3c(N4CCOCC4)nc(-c4cnc(N)nc4)nc3n2CC(F)(F)F)CCN1S(C)(=O)=O [Example 62, 5-{8-[(3S)-3-Methyl-4-(methylsulfonyl)piperazin-1-yl]-6-morpholin-4-yl-9-(2,2,2-trifluoroethyl)-9H-purin-2-yl}pyrimidin-2-amine] | < 0.01 | ≤ 5 | ≤ 5 | 30 to 60 | > 90 |
| CNc1ncc(-c2nc(N3CCOCC3)c3nc(N4CCN(CC(=O)N(C)C)[C@H](C)C4)n(CC(F)(F)F)c3n2)cn1 [Example 87, N,N-Dimethyl-2-[(2R)-2-methyl-4-{2-[2-(methylamino)pyrimidin-5-yl]-6-morpholin-4-yl-9-(2,2,2-trifluoroethyl)-9H-purin-8-yl}piperazin-1-yl]acetamide] | < 0.01 | ≤ 5 | ≤ 5 | > 60 | – |
| C[C@H]1COCCN1c1nc(-c2cnc(N)nc2)nc2c1nc(N1CCN(S(C)(=O)=O)CC1)n2CC(F)(F)F [Example 127, 5-{6-[(3S)-3-Methylmorpholin-4-yl]-8-[4-(methylsulfonyl)piperazin-1-yl]-9-(2,2,2-trifluoroethyl)-9H-purin-2-yl}pyrimidin-2-amine] | < 0.01 | ≤ 5 | ≤ 5 | – | – |
